Laboratory results: US7344829B2, “Methods for detecting the efficacy of anticancer treatments” (Board of Regents, the University of Texas System, priority 2000, dated 2008)

What was measured:
VEGF = experiment: In vitro expression of VEGF by L3.6pl cells (ELISA); type: cell-based, human; conditions: 72 h, 1 μM PKI166 or 10 nM gemcitabine, control 1400 pg/ml
Protocol: In vitro Expression of VEGF and IL-8. L3.6pl cells (2000 cells/38 mm^2 well) were plated into 96-well plates in 200 μl supplemented DMEM containing 5% FBS for 24 h, and then treated with 0.05, 0.5, or 1 μM PKI166. Supplemented DMEM (5% FBS) and human IgG (10 μg/ml) served as controls. Seventy-two hours later, the culture supernatants were collected, and the level of VEGF and IL-8 proteins (corrected for cell number) were determined by Quantikine ELISA kits.

KDR = biological target: T1, KDR (Homo sapiens, UniProt P35968); experiment: GST-fused kinase domain assay, KDR; type: biochemical
T1 construct: GST-fused kinase domains of Kdr, Flt-1, Flk, Tek, c-Met, and c-Kit were expressed in baculovirus; GST; made in house
T1 sequence (P35968 834-1162 limits assumed): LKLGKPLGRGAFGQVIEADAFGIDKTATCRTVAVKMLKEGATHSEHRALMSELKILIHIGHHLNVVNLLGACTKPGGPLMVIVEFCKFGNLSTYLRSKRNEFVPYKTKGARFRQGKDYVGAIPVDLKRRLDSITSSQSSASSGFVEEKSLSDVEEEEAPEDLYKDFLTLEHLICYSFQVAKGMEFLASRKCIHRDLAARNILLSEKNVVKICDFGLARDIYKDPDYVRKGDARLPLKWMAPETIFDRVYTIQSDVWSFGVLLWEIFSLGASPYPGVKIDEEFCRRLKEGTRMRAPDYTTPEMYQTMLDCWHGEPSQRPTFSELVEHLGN
Protocol: GST-fused kinase domains of Kdr, Flt-1, Flk, Tek, c-Met, and c-Kit were expressed in baculovirus and purified over glutathione-Sepharose. Kinase inhibition was measured by detecting the decrease in phosphorylation of poly(Glu,Tyr 4:1) essentially as previously described for EGF-R. Each kinase was incubated under optimized buffer conditions in 20 mM Tris-HCl, pH 7.5, 1–3 mM MnCl2, 3–10 mM MgCl2, 10 μM Na3VO4, 1 mM DTT, 0.2 μCi/[γ-^33P]ATP, 1–8 μM ATP, 3–8 μg/ml poly(Glu,Tyr 4:1), 1% DMSO in a total volume of 30 μl in the presence or absence of PKI166 for 10 min at ambient temperature. Reactions were terminated by adding 10 μl of 250 mM EDTA, and the reaction mixture was transferred onto an Immobilon-PVDG membrane (Millipore, Bedford, Mass.). Following a washing (0.5% H3PO4), a soaking in EtOH, and drying, filters were counted in a liquid scintillation counter. IC50 values for PKI166 were calculated by linear regression analysis of the percentage inhibition. Inhibition of Cdc2/cyclin B protein kinase (Arion et al. 1988; Partanen et al. 1991) and PKC (McGlynn et al. 1992b) was assayed as previously described.

C[C@@H](Nc1ncnc2[nH]c(-c3ccc(O)cc3)cc12)c1ccccc1 [PKI166, 4-(R)-phenethylamino-6-(hydroxyl) phenyl-7H-pyrrolo[2.3-d]-pyrimidine]
VEGF in culture supernatant (VEGF): 180 pg/mL
IC50 (KDR): 327 nM
